Laboratory results as given in PubChem BioAssay AID1959 (Broad Institute, 2009).
Activity calls are given as the source filed them.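 The calls were made as follows: active = growth-inhibition EC50 no more than tenfold above the top tested dose; inconclusive = flat fit between 30% and 70% inhibition, or unreliable fit; inactive = EC50 more than tenfold above the top tested dose.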

test system: E. coli NEB5alpha growth, BacTiter-Glo luminescence, 4 h; assay: antibacterial activity against E. coli NEB5alpha – luminescence, counter-screen for MEX-5/POS-1 RNA-binding inhibitor project, dose response (AID 1959);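 also: pUC19-transformed ampicillin-resistant cells grown in LB with ampicillin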

SMILES | EC50
COc1ccc(C2C(C(C)=O)=C(C)N=c3s/c(=C\c4cc(C)n(C)c4C)c(=O)n32)c(OC)c1 (stereo unspecified) | > 11 µM (inactive)
Cc1cc(/C=C2\C(=O)NC(=O)N(c3ccc(Cl)cc3)C2=O)c(C)n1-c1cccc(C(=O)O)c1 | > 11 µM (inactive)
O=C(N/N=C/c1c(O)n(Cc2ccc(F)cc2)c(=O)[nH]c1=O)c1ccccc1O | > 11 µM (inactive)
O=C(O)C1Nc2c(C(=O)N3CCOCC3)cccc2C2C=CCC12 (stereo unspecified) | > 11 µM (inactive)
CCOC(=O)C1CCN(C(=O)CCC(=O)NNc2nc3ccccc3c3nc(C)nn23)CC1 | > 11 µM (inactive)
O=C(NCCF)C1Nc2ccc(OC(F)(F)F)cc2C2C=CCC12 (stereo unspecified) | > 11 µM (inactive)
Cc1cccn2c(=O)c3cc(C#N)c(=NC(=O)c4cccs4)n(CCCOC(C)C)c3nc12 | > 11 µM (inactive)
C[C@@H]1Cc2c(O)c(O)cc(O)c2C(=O)O1 | > 11 µM (inactive)
CC(C)COc1ccc(/C=C2/Sc3ccccc3C2=O)cc1 | > 11 µM (inactive)
Cc1c(C=N)c(O)n(C)c(=O)c1C#N | > 11 µM (inactive)
CNC(=O)c1c(NC(=O)c2ccc(S(=O)(=O)N3CCCc4ccccc43)cc2)sc2c1CCN(C)C2 | > 11 µM (inactive)
Cc1cc(/C=C2\C(=O)NC(=O)N(c3ccccc3F)C2=O)c(C)n1-c1cc(C(=O)O)cc(C(=O)O)c1 | > 11 µM (inactive)
CCN(CC)CCN=Cc1c(O)n(Cc2ccccc2)c(=O)[nH]c1=O | > 11 µM (inactive)
CCOc1ccc(N/C(=C(/C(Cl)=C(Cl)Cl)[N+](=O)[O-])n2cncn2)cc1 | > 11 µM (inactive)
COc1cccc(C2c3c(oc4ccccc4c3=O)C(=O)N2Cc2ccco2)c1 (stereo unspecified) | > 11 µM (inactive)
CN(C)c1ccc(-c2nnc(-c3ccc(S(=O)(=O)C(F)F)cc3)o2)cc1 | > 11 µM (inactive)
N#Cc1c(N)nc(SCc2ccncc2)c(C#N)c1-c1cccs1 | > 11 µM (inactive)
Cc1ccc2cc(/C=C3\N=C(c4ccccc4)OC3=O)c(N3CCOCC3)nc2c1 | > 11 µM (inactive)

SMILES | EC50
CC(=O)/C(N=Nc1nc2c([nH]1)c(=O)n(C)c(=O)n2C)=C(\C)O | > 11 µM (inactive)
Cc1cccc(CN2C(=O)N/C(=C/c3ccc(C)s3)C2=O)c1 | > 11 µM (inactive)
COC(=O)c1ccc(C2Nc3ccc(/C(C)=N/NC(=O)C(OC)c4ccccc4)cc3C3C=CCC32)cc1 (stereo unspecified) | > 11 µM (inactive)
CCCCN1C(=O)/C(=C/C=C2\Oc3ccccc3N2CC)SC1=S | > 11 µM (inactive)
CC1(OC(=O)c2ccc(Cl)nc2)C(=O)C=C2C=C(c3ccsc3)OC=C2C1=O (stereo unspecified) | > 11 µM (inactive)
Cc1ccc(-n2ncc3c(NNC(=O)c4ccco4)ncnc32)cc1C | > 11 µM (inactive)
Cc1ccc(NC(=S)c2ccc3ccccc3n2)c(C)c1 | > 11 µM (inactive)
Cc1ccccc1NC(=O)/C(C#N)=C\c1cc(C)n(-c2ccc(C(=O)O)cc2)c1C | > 11 µM (inactive)
O=C(O)CC(C(=O)O)N1C(=O)/C(=C/C=C/c2ccco2)SC1=S (stereo unspecified) | > 11 µM (inactive)
COc1ccc(-n2c(C)cc(/C=C3\SC(=S)N(Cc4ccco4)C3=O)c2C)cc1 | > 11 µM (inactive)
COCCn1c(N)c(NCc2ccccc2)c(=O)[nH]c1=O | > 11 µM (inactive)
COc1ccc(/C=C/c2cc(C(F)(F)F)[nH]c(=O)n2)cc1OC | > 11 µM (inactive)
S=C1NC2(CCS1)Oc1ccccc1C1CC(c3ccccc3)=NN12 (stereo unspecified) | > 11 µM (inactive)
C[n+]1c(-c2ccccc2)c2cc(N)ccc2c2ccc(N)cc21 | > 11 µM (inactive)
C=CCN1C=C2C(=O)C(C)(OC(=O)CCC(=O)OC)C(=O)C(Br)=C2C=C1c1ccc(OC)cc1 (stereo unspecified) | > 11 µM (inactive)
Cc1cc(/C=C2\C(=O)NC(=O)N(c3ccc(Br)cc3)C2=O)c(C)n1-c1cc(C(=O)O)cc(C(=O)O)c1 | > 11 µM (inactive)
CCN(CC)CCN=Cc1c(O)n(CCc2ccccc2)c(=O)[nH]c1=O | > 11 µM (inactive)
CCCCOC(=O)CSC1=C(C#N)C(c2ccccc2OCC)C(C#N)C(=O)N1 (stereo unspecified) | > 11 µM (inactive)
